Measured values as given in PubChem BioAssay (NCI).
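Growth conditions: 96-well plates. Treatment: test compound, 48 hours, 5 concentrations. Analysis: linear interpolation between bracketing concentrations; unreached endpoints set to highest concentration. TGI denotes the concentration required for complete inhibition of growth.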

Columns and labels:
Assay in all cases: growth of human tumour cells (NCI), 48 h
[1] = system: 786-0 renal
[2] = system: A498 renal
[3] = system: A549 NSCLC
[4] = system: ACHN renal
[5] = system: CAKI-1 renal
[6] = system: CCRF-CEM leukemia
[7] = system: COLO 205 colon
[8] = system: DLD-1 colon
[9] = system: EKVX NSCLC
[10] = system: HCC-2998 colon
[11] = system: HCT-116 colon
[12] = system: HL-60(TB) leukemia
[13] = system: HOP-18 NSCLC
[14] = system: HOP-62 NSCLC
[15] = system: HOP-92 NSCLC
[16] = system: HT29 colon
[17] = system: IGROV1 ovarian
[18] = system: K-562 leukemia
[19] = system: KM12 colon
[20] = system: KM20L2 colon
[21] = system: LOX IMVI melanoma
[22] = system: LXFL 529 NSCLC
[23] = system: M14 melanoma
[24] = system: M19-MEL melanoma
[25] = system: MALME-3M melanoma
[26] = system: NCI-H226 lung
[27] = system: NCI-H23 lung
[28] = system: NCI-H460 lung
[29] = system: NCI-H522 lung
[30] = system: OVCAR-3 ovarian
[31] = system: OVCAR-4 ovarian
[32] = system: OVCAR-8 ovarian
[33] = system: RXF 393 renal
[34] = system: SF-268 CNS
[35] = system: SF-295 CNS
[36] = system: SF-539 CNS
[37] = system: SK-MEL-28 melanoma
[38] = system: SK-MEL-5 melanoma
[39] = system: SK-OV-3 ovarian
[40] = system: SN12C renal
[41] = system: SNB-19 CNS
[42] = system: SNB-75 CNS
[43] = system: SNB-78 CNS
[44] = system: SR leukemia
[45] = system: SW-620 colon
[46] = system: TK-10 renal
[47] = system: U251 CNS
[48] = system: UACC-257 melanoma
[49] = system: UACC-62 melanoma
[50] = system: UO-31 renal
[51] = system: XF 498 CNS
[52] = system: DMS 273 small cell lung
[53] = system: HCT-15 colon
[54] = system: MOLT-4 leukemia
[55] = system: OVCAR-5 ovarian
[56] = system: RPMI-8226 leukemia
[57] = system: SK-MEL-2 melanoma
[58] = system: DMS 114 small cell lung

## COc1nc2c(nc(N)n2C2OC(CO)C(O)C(O)C2O)c(=O)[nH]1 (stereo not given)
[1]
  TGI: > 100 µM
[2]
  TGI: > 100 µM
[3]
  TGI: > 100 µM
[4]
  TGI: > 100 µM
[5]
  TGI: > 100 µM
[6]
  TGI: > 100 µM
[7]
  TGI: > 100 µM
[8]
  TGI: > 100 µM
[9]
  TGI: > 100 µM
[10]
  TGI: > 100 µM
[11]
  TGI: > 100 µM
[12]
  TGI: > 100 µM
[13]
  TGI: > 100 µM
[14]
  TGI: > 100 µM
[15]
  TGI: > 100 µM
[16]
  TGI: > 100 µM
[17]
  TGI: > 100 µM
[18]
  TGI: > 100 µM
[19]
  TGI: > 100 µM
[20]
  TGI: > 100 µM
[21]
  TGI: > 100 µM
[22]
  TGI: > 100 µM
[23]
  TGI: > 100 µM
[24]
  TGI: > 100 µM
[25]
  TGI: > 100 µM
[26]
  TGI: > 100 µM
[27]
  TGI: > 100 µM
[28]
  TGI: > 100 µM
[29]
  TGI: > 100 µM
[30]
  TGI: > 100 µM
[31]
  TGI: > 100 µM
[32]
  TGI: > 100 µM
[33]
  TGI: > 100 µM
[34]
  TGI: > 100 µM
[35]
  TGI: > 100 µM
[36]
  TGI: > 100 µM
[37]
  TGI: > 100 µM
[38]
  TGI: > 100 µM
[39]
  TGI: > 100 µM
[40]
  TGI: > 100 µM
[41]
  TGI: > 100 µM
[42]
  TGI: > 100 µM
[43]
  TGI: > 100 µM
[44]
  TGI: > 100 µM
[45]
  TGI: > 100 µM
[46]
  TGI: > 100 µM
[47]
  TGI: > 100 µM
[48]
  TGI: > 100 µM
[49]
  TGI: > 100 µM
[50]
  TGI: > 100 µM
[51]
  TGI: > 100 µM

## C[C@@H](CC(O)C1OC1(C)C)[C@@H]1CC[C@]2(C)C3=CCC4C(C)(C)C(O)CC[C@]4(C)C3CCC12C (stereo not given in full)
[1]
  TGI: 33.9 µM
[2]
  TGI: 77.3 µM
[3]
  TGI: 32.9 µM
[4]
  TGI: 88.8 µM
[6]
  TGI: > 100 µM
[7]
  TGI: 60.7 µM
[8]
  TGI: > 100 µM
[52]
  TGI: 29.2 µM
[9]
  TGI: > 100 µM
[10]
  TGI: > 100 µM
[11]
  TGI: 31.3 µM
[53]
  TGI: > 100 µM
[12]
  TGI: 24.9 µM
[13]
  TGI: 80.7 µM
[14]
  TGI: > 100 µM
[15]
  TGI: 41.9 µM
[16]
  TGI: 24.8 µM
[17]
  TGI: > 100 µM
[18]
  TGI: 73.1 µM
[19]
  TGI: > 100 µM
[20]
  TGI: 48.6 µM
[21]
  TGI: > 100 µM
[22]
  TGI: 25.6 µM
[23]
  TGI: 42.1 µM
[24]
  TGI: 49.9 µM
[25]
  TGI: 31.1 µM
[54]
  TGI: > 100 µM
[26]
  TGI: 45.3 µM
[27]
  TGI: 75.4 µM
[28]
  TGI: > 100 µM
[29]
  TGI: 32.6 µM
[30]
  TGI: > 100 µM
[31]
  TGI: > 100 µM
[55]
  TGI: > 100 µM
[32]
  TGI: > 100 µM
[56]
  TGI: > 100 µM
[33]
  TGI: 42.1 µM
[34]
  TGI: 85.4 µM
[35]
  TGI: 40.8 µM
[36]
  TGI: 54.4 µM
[57]
  TGI: 57.4 µM
[37]
  TGI: 41.9 µM
[39]
  TGI: 58.9 µM
[40]
  TGI: > 100 µM
[41]
  TGI: > 100 µM
[44]
  TGI: > 100 µM
[45]
  TGI: > 100 µM
[46]
  TGI: 61.6 µM
[47]
  TGI: > 100 µM
[48]
  TGI: 41.2 µM
[49]
  TGI: 33.6 µM
[50]
  TGI: 63.5 µM
[51]
  TGI: 46.4 µM

## CC(=O)OC(C[C@H](C)[C@@H]1CC[C@]2(C)C3=CCC4C(C)(C)C(=O)CC[C@]4(C)C3CCC12C)C1OC1(C)C (stereo not given in full)
[1]
  TGI: 43.2 µM
[2]
  TGI: 31.7 µM
[3]
  TGI: > 100 µM
[4]
  TGI: 31.9 µM
[6]
  TGI: > 100 µM
[7]
  TGI: 48.3 µM
[8]
  TGI: > 100 µM
[58]
  TGI: > 100 µM
[52]
  TGI: 77.6 µM
[9]
  TGI: > 100 µM
[10]
  TGI: 30.7 µM
[11]
  TGI: 94.1 µM
[53]
  TGI: > 100 µM
[12]
  TGI: 29.5 µM
[13]
  TGI: > 100 µM
[14]
  TGI: 42.7 µM
[15]
  TGI: 24.3 µM
[16]
  TGI: 42.7 µM
[17]
  TGI: > 100 µM
[18]
  TGI: > 100 µM
[19]
  TGI: 47.4 µM
[20]
  TGI: > 100 µM
[21]
  TGI: > 100 µM
[22]
  TGI: > 100 µM
[23]
  TGI: 55.4 µM
[24]
  TGI: > 100 µM
[25]
  TGI: 89.2 µM
[54]
  TGI: > 100 µM
[26]
  TGI: 29 µM
[27]
  TGI: 86.4 µM
[29]
  TGI: 36.5 µM
[30]
  TGI: > 100 µM
[31]
  TGI: > 100 µM
[55]
  TGI: 31.8 µM
[32]
  TGI: > 100 µM
[56]
  TGI: > 100 µM
[33]
  TGI: 28.6 µM
[34]
  TGI: 83.2 µM
[35]
  TGI: > 100 µM
[36]
  TGI: > 100 µM
[57]
  TGI: > 100 µM
[37]
  TGI: 88.2 µM
[39]
  TGI: 25.7 µM
[41]
  TGI: > 100 µM
[45]
  TGI: > 100 µM
[46]
  TGI: 35.4 µM
[47]
  TGI: 66.8 µM
[48]
  TGI: 75.1 µM
[49]
  TGI: > 100 µM
[50]
  TGI: 25.8 µM
[51]
  TGI: 43.8 µM

## C/C(=N\OCC(O)CNC(C)C)c1ccc2c(c1)NC(=O)CS2 (stereo not given)
[1]
  TGI: > 100 µM
[2]
  TGI: > 100 µM
[3]
  TGI: > 100 µM
[4]
  TGI: > 100 µM
[6]
  TGI: > 100 µM
[7]
  TGI: > 100 µM
[8]
  TGI: > 100 µM
[58]
  TGI: > 100 µM
[9]
  TGI: > 100 µM
[10]
  TGI: > 100 µM
[11]
  TGI: > 100 µM
[53]
  TGI: > 100 µM
[13]
  TGI: > 100 µM
[14]
  TGI: > 100 µM
[15]
  TGI: > 100 µM
[16]
  TGI: > 100 µM
[18]
  TGI: > 100 µM
[19]
  TGI: > 100 µM
[20]
  TGI: > 100 µM
[21]
  TGI: > 100 µM
[22]
  TGI: > 100 µM
[23]
  TGI: > 100 µM
[24]
  TGI: > 100 µM
[25]
  TGI: > 100 µM
[54]
  TGI: > 100 µM
[26]
  TGI: > 100 µM
[27]
  TGI: > 100 µM
[28]
  TGI: > 100 µM
[29]
  TGI: > 100 µM
[30]
  TGI: > 100 µM
[31]
  TGI: > 100 µM
[55]
  TGI: > 100 µM
[32]
  TGI: > 100 µM
[33]
  TGI: > 100 µM
[34]
  TGI: > 100 µM
[35]
  TGI: > 100 µM
[36]
  TGI: > 100 µM
[57]
  TGI: > 100 µM
[37]
  TGI: > 100 µM
[38]
  TGI: > 100 µM
[39]
  TGI: > 100 µM
[40]
  TGI: > 100 µM
[41]
  TGI: > 100 µM
[42]
  TGI: > 100 µM
[43]
  TGI: > 100 µM
[45]
  TGI: > 100 µM
[46]
  TGI: > 100 µM
[47]
  TGI: > 100 µM
[48]
  TGI: > 100 µM
[49]
  TGI: > 100 µM
[50]
  TGI: > 100 µM
[51]
  TGI: > 100 µM

## O=C(O)CNS(=O)(=O)c1ccc(NC(=O)c2ccccc2[N+](=O)[O-])cc1
[1]
  TGI: > 100 µM
[2]
  TGI: > 100 µM
[3]
  TGI: > 100 µM
[4]
  TGI: > 100 µM
[5]
  TGI: > 100 µM
[6]
  TGI: > 100 µM
[7]
  TGI: > 100 µM
[8]
  TGI: > 100 µM
[52]
  TGI: > 100 µM
[9]
  TGI: > 100 µM
[53]
  TGI: > 100 µM
[12]
  TGI: > 100 µM
[13]
  TGI: > 100 µM
[15]
  TGI: > 100 µM
[16]
  TGI: > 100 µM
[17]
  TGI: > 100 µM
[18]
  TGI: > 100 µM
[20]
  TGI: > 100 µM
[21]
  TGI: > 100 µM
[22]
  TGI: > 100 µM
[23]
  TGI: > 100 µM
[24]
  TGI: > 100 µM
[25]
  TGI: > 100 µM
[54]
  TGI: > 100 µM
[27]
  TGI: > 100 µM
[28]
  TGI: > 100 µM
[29]
  TGI: > 100 µM
[31]
  TGI: > 100 µM
[55]
  TGI: > 100 µM
[32]
  TGI: > 100 µM
[56]
  TGI: > 100 µM
[33]
  TGI: > 100 µM
[34]
  TGI: > 100 µM
[36]
  TGI: > 100 µM
[57]
  TGI: > 100 µM
[37]
  TGI: > 100 µM
[38]
  TGI: > 100 µM
[39]
  TGI: > 100 µM
[40]
  TGI: > 100 µM
[41]
  TGI: > 100 µM
[42]
  TGI: > 100 µM
[45]
  TGI: > 100 µM
[46]
  TGI: > 100 µM
[47]
  TGI: > 100 µM
[48]
  TGI: > 100 µM
[49]
  TGI: > 100 µM
[50]
  TGI: > 100 µM
[51]
  TGI: > 100 µM
